Target: T1, recombinant human CCR5 receptor (Homo sapiens, UniProt P51681)
T1 construct: expressed in transfected cells; host or cells: Chinese hamster ovary (CHO) cells; membranes
Assay: Radioligand binding assay for inhibition of the binding of MIP-1α
Conditions: displacement of 0.1 nM iodinated MIP-1α; membranes of Chinese hamster ovary cells expressing CCR5
Method: Biological Assay for the Ability of Compounds to Inhibit the Binding of MIP-1α This ability is assessed using an in vitro radioligand binding assay. Membranes are prepared from Chinese hamster ovary cells which express the recombinant human CCR5 receptor. These membranes are incubated with 0.1 nM iodinated MIP-1α, scintillation proximity beads and various concentrations of the compounds of the invention in 96-well plates. The amount of iodinated MIP-1α bound to the receptor is then determined by scintillation counting.

T1 sequence (P51681 whole entry): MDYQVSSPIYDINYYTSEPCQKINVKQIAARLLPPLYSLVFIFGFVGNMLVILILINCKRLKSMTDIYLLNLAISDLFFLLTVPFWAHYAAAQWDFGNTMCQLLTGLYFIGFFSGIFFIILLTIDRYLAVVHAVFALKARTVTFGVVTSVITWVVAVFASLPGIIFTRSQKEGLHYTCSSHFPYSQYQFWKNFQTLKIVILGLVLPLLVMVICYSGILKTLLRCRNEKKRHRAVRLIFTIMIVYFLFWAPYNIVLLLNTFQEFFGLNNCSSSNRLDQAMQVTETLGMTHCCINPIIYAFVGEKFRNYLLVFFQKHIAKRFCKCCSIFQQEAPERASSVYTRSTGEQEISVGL

| Compound | IC50 |
| --- | --- |
| O=C(Nc1ccc(Cl)c(Cl)c1)N1CCN(CC2CCCN(C3CC3)C2)CC1 (stereo in doubt) [Example 139, 1-{[(3R)-1-Cyclopropylpiperidin-3-yl]methyl}-N-(3,4-dichlorophenyl)piperazine-4-carboxamide] | < 10 µM |
| O=C(Nc1ccccc1)N1CCN(CC2CCCN(C3CC3)C2)CC1 (stereo in doubt) [Example 183, N-Phenyl-4-{[(3R)-1-(2-cyclopropyl)piperidin-3-yl]methyl}piperazine-1-carboxamide] | < 10 µM |
| CCC(C)N1CCOC(CN2CCN(C(=O)Nc3ccc(F)c(Cl)c3)CC2)C1 (stereo in doubt) [Example 236, N-(3-chloro-4-fluorophenyl)-4-({(2R)-4-[(1R)-1-methylpropyl]morpholin-2-yl}methyl)piperazine-1-carboxamide] | < 10 µM |
| CCCC(C)N1CCOC(CN2CCN(C(=O)Nc3ccc(F)c(Cl)c3)CC2)C1 (stereo in doubt) [Example 237, N-(3-chloro-4-fluorophenyl)-4-({(2R)-4-[(1S)-1-methylbutyl]morpholin-2-yl}methyl)piperazine-1-carboxamide] | < 10 µM |
| CC(Cc1ccccc1)N1CCCC(CN2CCN(C(=O)Nc3ccccc3)CC2)C1 (stereo in doubt) [Example 246, 4-[[(3R)-1-(1-methyl-2-phenyl-ethyl)-3-piperidyl]methyl]-N-phenyl-piperazine-1-carboxamide] | < 10 µM |
| CC(C)CC(C)N1CCOC(CN2CCN(C(=O)Nc3ccc(F)c(Cl)c3)CC2)C1 (stereo in doubt) [Example 259, N-(3-chloro-4-fluorophenyl)-4-({(2R)-4-[(1R)-1,3-dimethylbutyl]morpholin-2-yl}methyl)piperazine-1-carboxamide] | < 10 µM |
| O=C(Nc1ccc(Cl)c(Cl)c1)N1CCN(CC2CCCN(CC(O)c3cccc[n+]3[O-])C2)CC1 (stereo in doubt) [Example 267, N-(3,4-dichlorophenyl)-4-({(3R)-1-[2-hydroxy-2-(1-oxidopyridin-2-yl)ethyl]piperidin-3-yl}methyl)piperazine-1-carboxamide] | < 10 µM |
| CN1CCCC(CN2CCN(C(=O)Nc3ccccc3)CC2)C1 (centres unmarked) [Example 1, 4-[(1-methylpiperidin-3-yl)methyl]-N-phenylpiperazine-1-carboxamide] | < 10 µM |
| Cc1ccc(NC(=O)N2CCN(CC3CCCN(C)C3)CC2)cc1Cl (centres unmarked) [Example 26, N-(3-chloro-4-methylphenyl)-4-[(1-methylpiperidin-3-yl)methyl]piperazine-1-carboxamide] | < 10 µM |
| O=C(Nc1ccc(Cl)c(Cl)c1)N1CCN(C[C@@H]2CCCN(Cc3cc[nH]n3)C2)CC1 [Example 34, N-(3,4-dichlorophenyl)-4-{[(3S)-1-(1H-pyrazol-3-ylmethyl)-piperidin-3-yl]methyl}piperazine-1-carboxamide] | < 10 µM |
| Cc1cccnc1CN1CCC[C@@H](CN2CCN(C(=O)Nc3ccc(Cl)c(Cl)c3)CC2)C1 [Example 44, N-(3,4-dichlorophenyl)-4-({(3S)-1-[(3-methylpyridin-2-yl)methyl]piperidin-3-yl}methyl)piperazine-1-carboxamide] | < 10 µM |
| COc1ccc(CN2CCC[C@@H](CN3CCN(C(=O)Nc4ccc(Cl)c(Cl)c4)CC3)C2)cc1 [Example 47, N-(3,4-dichlorophenyl)-4-{[(3R)-1-(4-methoxybenzyl)piperidin-3-yl]methyl}piperazine-1-carboxamide] | < 10 µM |
| N#C/N=C(\Nc1ccc(Cl)c(Cl)c1)N1CCN(C[C@@H]2CCCN(CCc3ccccc3)C2)CC1 [Example 79, N-cyano-N-(3,4-dichlorophenyl)-4-{[(3R)-1-(2-phenylethyl)piperidin-3-yl]methyl}piperazine-1-carboximidamide] | < 10 µM |
| CCN1CCC[C@@H](C(=O)N2CCN(C(=O)Nc3ccc(Cl)c(Cl)c3)CC2)C1 [Example 90, N-(3,4-dichlorophenyl)-4-{[(3R)-1-ethylpiperidin-3-yl]carbonyl}piperazine-1-carboxamide] | < 10 µM |
| CCN1CCC[C@@H](CN2CCN(C(=O)Nc3ccc(Cl)c(Cl)c3)CC2=O)C1 [Example 91, N-(3,4-dichlorophenyl)-4-{[(3R)-1-ethylpiperidin-3-yl]methyl}-3-oxopiperazine-1-carboxamide] | < 10 µM |
| O=C(Nc1ccc(C(F)(F)F)c(Cl)c1)N1CCN(C[C@@H]2CCCN(C3CC3)C2)CC1 [Example 106, N-[3-chloro-4-(trifluoromethyl)phenyl]-4-{[(3S)-1-cyclopropylpiperidin-3-yl]methyl}piperazine-1-carboxamide] | < 10 µM |
| O=C(Nc1ccc(F)c(Cl)c1)N1CCN(C[C@@H]2CCCN(C3CC3)C2)CC1 [Example 107, N-(3-chloro-4-fluorophenyl)-4-{[(3S)-1-cyclopropylpiperidin-3-yl]methyl}piperazine-1-carboxamide] | < 10 µM |
| O=C(Nc1ccc(Br)cc1)N1CCN(C[C@@H]2CCCN(C3CC3)C2)CC1 [Example 108, N-(4-bromophenyl)-4-{[(3S)-1-cyclopropylpiperidin-3-yl]methyl}piperazine-1-carboxamide] | < 10 µM |
| O=C(Nc1ccc(C(F)(F)F)cc1)N1CCN(C[C@@H]2CCCN(C3CC3)C2)CC1 [Example 111, 4-{[(3S)-1-cyclopropylpiperidin-3-yl]methyl}-N-[4-(trifluoromethyl)phenyl]piperazine-1-carboxamide] | < 10 µM |
| COCCN1CCC[C@@H](CN2CCN(C(=O)Nc3ccc(Cl)c(Cl)c3)CC2)C1 [Example 113, N-(3,4-dichlorophenyl)-4-{[(3S)-1-(2-methoxyethyl)piperidin-3-yl]methyl}piperazine-1-carboxamide] | < 10 µM |
| O=C(Nc1ccc(Cl)c(Cl)c1)N1CCN(C[C@H]2CN(C3CCCC3)CCO2)CC1 [Example 118, 4-{[(2S)-4-cyclopentylmorpholin-2-yl]methyl}-N-(3,4-dichlorophenyl)piperazine-1-carboxamide] | < 10 µM |
| CC(C)N1CCO[C@@H](CN2CCN(C(=O)Nc3ccc(Cl)c(Cl)c3)CC2)C1 [Example 119, N-(3,4-dichlorophenyl)-4-{[(2S)-4-isopropylmorpholin-2-yl]methyl}piperazine-1-carboxamide] | < 10 µM |
| O=C(Nc1ccc(Cl)c(Cl)c1)N1CCN(C[C@H]2CN(C3CCOCC3)CCO2)CC1 [Example 121, N-(3,4-dichlorophenyl)-4-{[(2S)-4-(tetrahydro-2H-pyran-4-yl)morpholin-2-yl]methyl}piperazine-1-carboxamide] | < 10 µM |

More lines, now with the values ahead:

| IC50 | Compound |
| --- | --- |
| < 10 µM | O=C(Nc1ccc(Cl)cc1)N1CCN(CC2CCCN(C3CC3)C2)CC1 (stereo in doubt) [Example 185, N-(4-chlorophenyl)-4-{[(3R)-1-(2-cyclopropyl)piperidin-3-yl]methyl}piperazine-1-carboxamide] |
| < 10 µM | O=C(Nc1ccc(Cl)c(Cl)c1)N1CCN(C[C@@H]2CCCN(CC3CC3)C2)CC1 [Example 19, 4-{[(3R)-1-(cyclopropylmethyl)-piperidin-3-yl]methyl}-N-(3,4-dichlorophenyl)-piperazine-1-carboxamide] |
| < 10 µM | CN1CCCC(CN2CCN(C(=O)Nc3cc(Cl)cc(Cl)c3)CC2)C1 (centres unmarked) [Example 41, N-(3,5-dichlorophenyl)-4-[(1-methylpiperidin-3-yl)methyl]piperazine-1-carboxamide] |
| < 10 µM | O=C1CN(C(=O)Nc2ccc(Cl)c(Cl)c2)CCN1CC1CCCN(Cc2ccccc2)C1 (centres unmarked) [Example 42, 4-[(1-benzylpiperidin-3-yl)methyl]-N-(3,4-dichlorophenyl)-3-oxopiperazine-1-carboxamide] |
| < 10 µM | CC(C)N1CCC[C@@H](CN2CCN(C(=O)Nc3ccc(Cl)c(Cl)c3)CC2)C1 [Example 84, N-(3,4-dichlorophenyl)-4-{[(3S)-1-isopropylpiperidin-3-yl]methyl}piperazine-1-carboxamide] |
| < 10 µM | O=C(Nc1ccc(Cl)c(Cl)c1)N1CCN(C(=O)[C@@H]2CCCN(CCc3ccccc3)C2)CC1 [Example 89, N-(3,4-dichlorophenyl)-4-{[(3R)-1-(2-phenylethyl)piperidin-3-yl]carbonyl}piperazine-1-carboxamide] |
| < 10 µM | O=C(Nc1cccc(C(F)(F)F)c1)N1CCN(C[C@@H]2CCCN(C3CC3)C2)CC1 [Example 109, 4-{[(3S)-1-cyclopropylpiperidin-3-yl]methyl}-N-[3-(trifluoromethyl)phenyl]piperazine-1-carboxamide] |
| < 10 µM | Cc1ccc(NC(=O)N2CCN(C[C@@H]3CCCN(C4CC4)C3)CC2)cc1Cl [Example 110, N-(3-chloro-4-methylphenyl)-4-{[(3S)-1-cyclopropylpiperidin-3-yl]methyl}piperazine-1-carboxamide] |
| < 10 µM | CC(C)(C)c1cc(NC(=O)N2CCN(C[C@@H]3CCCN(C4CC4)C3)CC2)no1 [Example 112, N-(5-tert-butylisoxazol-3-yl)-4-{[(3S)-1-cyclopropylpiperidin-3-yl]methyl}piperazine-1-carboxamide] |
| < 10 µM | O=C(Nc1ccc(Cl)c(Cl)c1)N1CCN(C[C@H]2CN(C3CCC3)CCO2)CC1 [Example 115, 4-{[(2S)-4-cyclobutylmorpholin-2-yl]methyl}-N-(3,4-dichlorophenyl)piperazine-1-carboxamide] |
| < 10 µM | CC(=O)N1CCC(N2CCO[C@@H](CN3CCN(C(=O)Nc4ccc(Cl)c(Cl)c4)CC3)C2)CC1 [Example 120, 4-{[(2S)-4-(1-acetylpiperidin-4-yl)morpholin-2-yl]methyl}-N-(3,4-dichlorophenyl)piperazine-1-carboxamide] |
| < 10 µM | O=C(Nc1ccc(Cl)c(Cl)c1)N1CCN(C[C@H]2CN(C3CCC(O)CC3)CCO2)CC1 (stereo partly drawn) [Example 122, N-(3,4-dichlorophenyl)-4-{[(2S)-4-(4-hydroxycyclohexyl)morpholin-2-yl]methyl}piperazine-1-carboxamide] |
